According to patent US11926612B2, “Heterocyclic apelin receptor (APJ) agonists and uses thereof” (Research Triangle Institute, priority 2016, dated 2024):

The compounds below were run against T1, apelin receptor (APJ) (Homo sapiens, UniProt P35414) (assay: in vitro activity as apelin agonists (methods of Giddings et al.; Apelin-13 positive control)). Conditions: apelin agonist activity, average; read-out: EC50 (nM) Ave.
T1 sequence (P35414 1-380): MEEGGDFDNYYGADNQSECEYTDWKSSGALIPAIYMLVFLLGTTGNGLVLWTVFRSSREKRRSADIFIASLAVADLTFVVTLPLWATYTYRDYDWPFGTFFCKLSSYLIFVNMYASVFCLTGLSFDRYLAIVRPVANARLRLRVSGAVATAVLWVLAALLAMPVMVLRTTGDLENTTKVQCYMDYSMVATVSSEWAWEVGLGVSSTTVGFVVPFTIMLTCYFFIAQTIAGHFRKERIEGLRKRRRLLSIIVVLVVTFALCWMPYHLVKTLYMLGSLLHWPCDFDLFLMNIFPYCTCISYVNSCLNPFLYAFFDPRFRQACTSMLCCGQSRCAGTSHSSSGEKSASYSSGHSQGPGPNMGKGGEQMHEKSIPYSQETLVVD
Format: cell-based
Text: The compounds above were studied for their in vitro activity as apelin agonists using the methods described by Giddings et al. Giddings et al., 2010 Int J High Thro Screen. 1:39-47, the contents of which are hereby incorporated by reference in its entirety. The methods described in Giddings et al. were used as described and Apelin-13 was a positive control.
Compound `O=C(O)C[C@H](CCN1CCCC(F)(F)C1)NC(=O)c1nc(-c2ccccc2C(F)(F)F)n(C2CCCC2)n1` [compound 462, (3S)-3-({1-cyclopentyl-5-[2-(trifluoromethyl)phenyl]-1H-1,2,4-triazol-3-yl}formamido)-5-(3,3-difluoropiperidin-1-yl)pentanoic acid] has an EC50 of 384 nM. In the case of `O=C(C[C@H](CCN1CCCC(F)(F)C1)NC(=O)c1nc(C2CCCC2)n(-c2ccccc2C(F)(F)F)n1)NC1CCC1` [compound 454, (3S)-N-cyclobutyl-3-({5-cyclopentyl-1-[2-(trifluoromethyl)phenyl]-1H-1,2,4-triazol-3-yl}formamido)-5-(3,3-difluoropiperidin-1-yl)pentanamide], the EC50 is reported as 8.3 nM. `CC(C)Cc1c(-c2ccccc2Cl)nc(C(=O)N[C@@H](CCN2CCCC(F)(F)C2)CC(=O)O)n1C` [compound 476, (3S)-3-{[4-(2-chlorophenyl)-1-methyl-5-(2-methylpropyl)-1H-imidazol-2-yl]formamido}-5-(3,3-difluoropiperidin-1-yl)pentanoic acid] was tested, and the EC50 was > 10000 nM. `COCCN(C)C(=O)[C@H](CCc1ccccc1)NC(=O)c1nc(-c2ccccc2C(F)(F)F)n(C2CCCC2)n1` [compound 569, (2S)-2-({1-cyclopentyl-5-[2-(trifluoromethyl)phenyl]-1H-1,2,4-triazol-3-yl}formamido)-N-(2-methoxyethyl)-N-methyl-4-phenylbutanamide] was tested, and the EC50 was > 10000 nM. With `O=C(O)C[C@H](CCN1CCCC(F)(F)C1)NC(=O)c1nc(C2CCCC2)n(-c2cccnc2C(F)(F)F)n1` [compound 513, (3S)-3-({5-cyclopentyl-1-[2-(trifluoromethyl)pyridin-3-yl]-1H-1,2,4-triazol-3-yl}formamido)-5-(3,3-difluoropiperidin-1-yl)pentanoic acid] the EC50 was > 10000 nM. For `O=C(C[C@H](CCN1CCCCC1)NC(=O)c1nc(-c2ccccc2C(F)(F)F)n(C2CCCC2)n1)NC1CCC1` [compound 446, (3S)-N-cyclobutyl-3-({1-cyclopentyl-5-[2-(trifluoromethyl)phenyl]-1H-1,2,4-triazol-3-yl}formamido)-5-(piperidin-1-yl)pentanamide], the EC50 was 310 nM. With `CC(C)Cc1c(-c2ccccc2Cl)nc(C(=O)N[C@@H](CCN2CCCC(F)(F)C2)CC(=O)N(C)c2nccs2)n1C` [compound 477, (3S)-3-{[4-(2-chlorophenyl)-1-methyl-5-(2-methylpropyl)-1H-imidazol-2-yl]formamido}-5-(3,3-difluoropiperidin-1-yl)-N-methyl-N-(1,3-thiazol-2-yl)pentanamide] the EC50 was > 10000 nM. With `O=C(O)C[C@H](CCN1CCC(F)(F)C1)NC(=O)c1nc(C2CCCC2)n(-c2ccccc2C(F)(F)F)n1` [compound 586, (3S)-3-({5-cyclopentyl-1-[2-(trifluoromethyl)phenyl]-1H-1,2,4-triazol-3-yl}formamido)-5-(3,3-difluoropyrrolidin-1-yl)pentanoic acid] the EC50 was 74 nM. Work on `O=C(C[C@H](CCN1CCCC(F)(F)C1)NC(=O)c1nc(C2CCCC2)n(-c2cccnc2C(F)(F)F)n1)NC1CCC1` [compound 531, (3S)-N-cyclobutyl-3-({5-cyclopentyl-1-[2-(trifluoromethyl)pyridin-3-yl]-1H-1,2,4-triazol-3-yl}formamido)-5-(3,3-difluoropiperidin-1-yl)pentanamide] yielded an EC50 of 323 nM. `CN(C(=O)C[C@H](CCN1CCCC(F)(F)C1)N(C)C(=O)c1nc(C2CCCC2)n(-c2ccccc2C(F)(F)F)n1)c1nccs1` [compound 474, (3S)-3-(1-{5-cyclopentyl-1-[2-(trifluoromethyl)phenyl]-1H-1,2,4-triazol-3-yl}-N-methylformamido)-5-(3,3-difluoropiperidin-1-yl)-N-methyl-N-(1,3-thiazol-2-yl)pentanamide] showed an EC50 of 588 nM. In the case of `CC(C)Cc1c(-c2ccccc2Cl)nc(C(=O)N[C@@H](CCN2CCCC(F)(F)C2)CC(=O)NC2CCC2)n1C` [compound 478, (3S)-3-{[4-(2-chlorophenyl)-1-methyl-5-(2-methylpropyl)-1H-imidazol-2-yl]formamido}-N-cyclobutyl-5-(3,3-difluoropiperidin-1-yl)pentanamide], the EC50 is reported as > 10000 nM. `O=C(N[C@@H](CCN1CCCC(F)(F)C1)Cc1nnn[nH]1)c1cn(-c2ccccc2C(F)(F)F)c(C2CCCC2)n1` [compound 620] was tested, and the EC50 was 8 nM. For `CN(C(=O)C[C@H](CCN1CCCC(F)(F)C1)NC(=O)c1cn(-c2ccccc2C(F)(F)F)c(C2CCCC2)n1)c1nccs1` [compound 473, (3S)-3-({2-cyclopentyl-1-[2-(trifluoromethyl)phenyl]-1H-imidazol-4-yl}formamido)-5-(3,3-difluoropiperidin-1-yl)-N-methyl-N-(1,3-thiazol-2-yl)pentanamide], the EC50 was 46 nM. Compound `O=C(C[C@H](CCN1CCCCC1)NC(=O)c1nc(C2CCCC2)n(-c2ccccc2C(F)(F)F)n1)NC1CCC1` [compound 444, (3S)-N-cyclobutyl-3-({5-cyclopentyl-1-[2-(trifluoromethyl)phenyl]-1H-1,2,4-triazol-3-yl}formamido)-5-(piperidin-1-yl)pentanamide] has an EC50 of 40 nM. `CN(C(=O)C[C@H](CCN1CCCC(F)(F)C1)NC(=O)c1nc(-c2ccccc2C(F)(F)F)n(C2CCCC2)n1)c1nccs1` [compound 456, (3S)-3-({1-cyclopentyl-5-[2-(trifluoromethyl)phenyl]-1H-1,2,4-triazol-3-yl}formamido)-5-(3,3-difluoropiperidin-1-yl)-N-methyl-N-(1,3-thiazol-2-yl)pentanamide] showed an EC50 of 48 nM. With `O=C(O)C[C@H](CCN1CCCC(F)(F)C1)NC(=O)c1cn(-c2ccccc2C(F)(F)F)c(C2CCCC2)n1` [compound 617, (3S)-3-({2-cyclopentyl-1-[2-(trifluoromethyl)phenyl]-1H-imidazol-4-yl}formamido)-5-(3,3-difluoropiperidin-1-yl)pentanoic acid] the EC50 was 13 nM. `O=C(C[C@H](CCN1CCCC(F)(F)C1)NC(=O)c1nc(-c2cccnc2C(F)(F)F)n(C2CCCC2)n1)NC1CCC1` [compound 532, (3S)-N-cyclobutyl-3-({1-cyclopentyl-5-[2-(trifluoromethyl)pyridin-3-yl]-1H-1,2,4-triazol-3-yl}formamido)-5-(3,3-difluoropiperidin-1-yl)pentanamide] gave an EC50 of 2540 nM. Work on `COCCN(C)C(=O)[C@H](CCc1ccccc1)NC(=O)c1nc(C2CCCC2)n(-c2ccccc2C(F)(F)F)n1` [compound 543, (2S)-2-({5-cyclopentyl-1-[2-(trifluoromethyl)phenyl]-1H-1,2,4-triazol-3-yl}formamido)-N-(2-methoxyethyl)-N-methyl-4-phenylbutanamide] yielded an EC50 of 754 nM. With `CN(C(=O)C[C@H](CCN1CCCC(F)(F)C1)NC(=O)c1nc(C2CCCC2)n(-c2ccccc2C(F)(F)F)n1)c1nccs1` [compound 455, (3S)-3-({5-cyclopentyl-1-[2-(trifluoromethyl)phenyl]-1H-1,2,4-triazol-3-yl}formamido)-5-(3,3-difluoropiperidin-1-yl)-N-methyl-N-(1,3-thiazol-2-yl)pentanamide] the EC50 was 22 nM. `O=C(O)C[C@H](CCN1CCCC(F)(F)C1)NC(=O)c1nc(-c2ncccc2C(F)(F)F)n(C2CCCC2)n1` [compound 512, (3S)-3-({1-cyclopentyl-5-[3-(trifluoromethyl)pyridin-2-yl]-1H-1,2,4-triazol-3-yl}formamido)-5-(3,3-difluoropiperidin-1-yl)pentanoic acid] gave an EC50 of 152 nM. For `O=C(C[C@H](CCN1CCCC(F)(F)C1)NC(=O)c1nc(-c2ccccc2C(F)(F)F)n(C2CCCC2)n1)NC1CCC1` [compound 453, (3S)-N-cyclobutyl-3-({1-cyclopentyl-5-[2-(trifluoromethyl)phenyl]-1H-1,2,4-triazol-3-yl}formamido)-5-(3,3-difluoropiperidin-1-yl)pentanamide], the EC50 was 9 nM.
